The test system of one series is KB cells. The series is described as follows: cells. It is filed as cell-based, Human. Conditions: 3 h. The protocol:
METHOD. Inhibition of Cellular DNA Synthesis. The conjugates described herein were evaluated using an in vitro cytotoxicity assay that predicted the ability of the drug to inhibit the growth of the corresponding targeted cells, such as, but not limited to the following
It is to be understood that the choice of cell type can be made on the basis of the susceptibility of those selected cells to the drug that forms the conjugate, and the relative expression of the cell surface receptor or target antigen. The test conjugates were conjugates of a cell surface receptor or target antigen binding compound and PBD prodrugs, poly-PBD prodrugs, and mixed PBDs, as described herein. The test cells were exposed to varying concentrations of the conjugates, and optionally also in the absence or presence of at least a 100-fold excess of the unconjugated cell surface receptor or target antigen binding compound for competition studies to assess activity as being specific to the cell surface receptor or target antigen.
EXAMPLE. Conjugates of PBD prodrugs, poly-PBD prodrugs, and mixed PBDs described herein were active against KB cells. The activity was mediated by the folate receptor as indicated by competition experiments using co-administered folic acid. KB cells were exposed for up to 7 h at 37° C. to the indicated concentrations of folate-drug conjugate in the absence or presence of at least a 100-fold excess of folic acid. The cells were then rinsed once with fresh culture medium and incubated in fresh culture medium for 72 hours at 37° C. Cell viability was assessed using a ^3H-thymidine incorporation assay. For conjugates described herein, dose-dependent cytotoxicity was generally measurable, and in most cases, the IC50 values (concentration of drug conjugate required to reduce ^3H-thymidine incorporation into newly synthesized DNA by 50%) were in the low nanomolar range.

The nature of series [1]: Toxicity as measured by weight loss (test animal total body weight). It is filed as in vivo, mice. Conditions: 2 μmol/kg TIW for two weeks. As to the method:
METHOD. Toxicity as Measured by Weight Loss. The percentage weight change of the test animals was determined on selected days post-tumor inoculation (PTI), and during dosing. The results were graphed.

A further series has as its system MDA-MB-231 tumors. The series is described as follows: TNBC tumor assay (MDA-MB-231 xenograft). The note with it: 2 μmol/kg TIW for two weeks. Type of series: in vivo, nu/nu mice. From the text: General. […] A PR is observed where tumor volume, as defined herein, decreases from a previous high during the observation period, though regrowth may occur. A CR is observed where tumor volume, as defined herein, decreases to zero during the observation period, though regrowth may occur.
METHOD EXAMPLE. TNBC Tumor Assay. Triple negative breast cancer (TNBC) is a subtype characterized by lack of gene expression for estrogen, progesterone and Her2/neu. TNBC is difficult to treat, and the resulting death rate in patients is reportedly disproportionately higher than for any other subtype of breast cancer. A TNBC xenograft model was generated in an analogous way to the KB and M109 models described herein by implanting MDA-MB-231 breast cancer cells in nu/nu mice. […] Test animals (5/group) were injected intravenously, generally three times a week (TIW), for 2-3 weeks with varying doses, such as with 1 μmol/kg to 5 μmol/kg, of the drug delivery conjugate or with an equivalent dose volume of PBS (control), unless otherwise indicated. Dosing solutions were prepared fresh each day in PBS and administered through the lateral tail vein of the mice.

In a further series the test system is KB-CR2000 tumors. The series is described as follows: Cisplatin therapy of cisplatin-resistant KB-CR2000 tumors. It is filed as in vivo. Conditions: high, toxic dose of cisplatin. The source says: METHOD. Human cisplatin-resistant cell line.

From patent US10624972B2, “Conjugates for treating diseases” (priority 2015, dated 2020) come the findings set out here.

The structures appear in SMILES notation. “Also recorded” adds a separate entry of the source.

One may read the IC50 as the point on the concentration scale where inhibition reaches its midpoint. A high value points to a need for much substance. Take `C=C1C[C@H]2C(=O)Nc3cc(OCCCCCOc4cc(N)c(C(=O)N5CC(=C)C[C@H]5C5OCCN5C(=O)OCCSSC[C@H](NC(=O)[C@H](CC(=O)O)NC(=O)[C@H](CC(=O)O)NC(=O)[C@H](CCCNC(=N)N)NC(=O)[C@H](CC(=O)O)NC(=O)CC[C@H](NC(=O)c5ccc(NCc6cnc7nc(N)[nH]c(=O)c7n6)cc5)C(=O)O)C(=O)O)cc4OC)c(OC)cc3C(=O)N2C1` (stereo partly drawn) [EC1744]: in the series on KB cells, the midpoint of inhibition, the IC50, lay at 1.2 nM. Besides, in series [1] (KB tumor study), the “toxicity as evidenced by test animal total body weight” value (from here on “toxicity as evidenced”) is “Toxicity was not observed”. Also, in series [1] (MDA-MB-231 tumor study), the “toxicity as evidenced” value was “Toxicity was not observed”. For the same compound, in the series on MDA-MB-231 tumors, the “MDA-MB-231 tumors compared to untreated control” value was “decreases MDA-MB-231 tumors; also recorded: decreased triple negative breast cancer (TNBC) MDA-MB-231 tumors”; the “complete response, number of test animals, MDA-MB-231 tumors” value was 5/5; the “cure, number of test animals, MDA-MB-231 tumors” value was 4/5.

With `C=C1C[C@@H](C2OCCN2C(=O)OCCSSC[C@@H](NC(=O)[C@H](CCC(=O)NC[C@H](O)[C@@H](O)[C@H](O)[C@H](O)CO)NC(=O)[C@@H](CCC(=O)O)NC(=O)[C@H](CCC(=O)NC[C@H](O)[C@@H](O)[C@H](O)[C@H](O)CO)NC(=O)[C@@H](CCC(=O)O)NC(=O)[C@H](CCC(=O)NC[C@H](O)[C@@H](O)[C@H](O)[C@H](O)CO)NC(=O)CC[C@H](NC(=O)c2ccc(NCc3cnc4nc(N)[nH]c(=O)c4n3)cc2)C(=O)O)C(=O)O)N(C(=O)c2cc(OC)c(OCCCCCOc3cc(N)c(C(=O)N4CC(=C)C[C@H]4C4OCCN4C(=O)OCC4c5ccccc5-c5ccccc54)cc3OC)cc2N)C1` (stereo partly drawn) [EC1884], in the series with KB cells, the concentration for half-maximal inhibition (IC50) was 0.36 nM. For the same compound, the “toxicity as evidenced” value in series [1] (KB tumor study) is reported as “Toxicity was not observed”.

Consider `N.N.[Cl][Pt][Cl]` [cisplatin], for which, in the series with KB-CR2000 tumors, the “tumor response to cisplatin therapy” value is “did not produce even a single partial response”.
